{
  "source": "patent US20150201661A1",
  "about": "“BAMBOO EXTRACTS, COMPOSITIONS AND USES THEREOF” (priority 2014, published 2015)",
  "type_in_all_cases": "in vivo, Pseudosciaena crocea",
  "key": {"leptin": {"system": "leptin", "experiment": "Leptin level in the liver of large yellow croaker", "conditions": "5 months, feed with GBE 3.0 g/kg or astaxanthin 1.0 g/kg", "source_text": "(§1) Yellow croaker fish (Pseudosciaena crocea) are an important marine economic fish in China. One thousand and eight hundred of large yellow croakers with the average weight of 150.06±11.35 g, were randomly selected into three groups (each group represented by three replicates of 200 large yellow croakers each). The GBE group and astaxanthin group were feed with complete formula puffed pellet feed rich in 3.0 g/kg of GBE and 1.0 g/kg of astaxanthin, respectively. Astaxanthin is an accepted dietary additive, but is quite expensive. The reference group was feed with chilled miscellaneous fish and shrimp. The breeding time was five months. Feeding was stopped 24 h after the test. Eight test large yellow croakers were randomly selected from each replicate group (that is, 24 test large yellow croakers each group). The selected fish were weighed, the livers were segmented, and the abdominal and back muscles examined after they were killed. Adequate amount of fresh back and abdominal muscle were used for sensory evaluation, the rest were sub-packaged and stored on −20° C. refrigerator for further use. The fat content of liver and fish and the superoxide dismutase (SOD) activity, catalase (CAT) activity, malondialdehyde (MDA) content, leptin content, adiponectin content of liver were detected."}, "adiponectin": {"system": "adiponectin", "experiment": "Adiponectin level in the liver of large yellow croaker", "conditions": "5 months, feed with GBE 3.0 g/kg or astaxanthin 1.0 g/kg", "source_text": "as §1"}, "back muscle tissue": {"system": "back muscle tissue", "experiment": "Transmission electron microscopy of back muscle of large yellow croakers", "conditions": "FIG. 4", "source_text": "as §1"}, "[1]": {"experiment": "Body weight and fat content of large yellow croaker", "conditions": "5 months, feed with GBE 3.0 g/kg or astaxanthin 1.0 g/kg", "source_text": "as §1"}, "[2]": {"system": "superoxide dismutase (SOD)", "experiment": "SOD activity in liver of large yellow croaker", "conditions": "5 months, feed with GBE 3.0 g/kg or astaxanthin 1.0 g/kg", "source_text": "as §1"}, "catalase (CAT)": {"system": "catalase (CAT)", "experiment": "CAT activity in liver of large yellow croaker", "conditions": "5 months, feed with GBE 3.0 g/kg or astaxanthin 1.0 g/kg", "source_text": "as §1"}, "malondialdehyde (MDA)": {"system": "malondialdehyde (MDA)", "experiment": "MDA content (lipid peroxidation) in liver of large yellow croaker", "conditions": "5 months, feed with GBE 3.0 g/kg or astaxanthin 1.0 g/kg", "source_text": "as §1"}},
  "note": "Marks after values point to notes of the source that are not given here.",
  "data": [
    {"smiles": "CC1=C(/C=C/C(C)=C/C=C/C(C)=C/C=C/C=C(C)/C=C/C=C(C)/C=C/C2=C(C)C(=O)[C@@H](O)CC2(C)C)C(C)(C)C[C@H](O)C1=O", "note": "[ASTA, astaxanthin]", "values": [
      {"measurement": "LEPTIN level in the liver", "setting": "leptin", "result": "1.08 ± 0.12^b ng/mL"},
      {"measurement": "ADIPONECTIN level in the liver", "setting": "adiponectin", "result": "2.57 ± 0.33^c ug/mL"},
      {"measurement": "clearance of muscle bundle, order of groups", "setting": "back muscle tissue; TEM 10000 times", "result": "reference group<GBE group<astaxanthin group"},
      {"measurement": "quantity of mitochondria, order of groups", "setting": "back muscle tissue; TEM 12000 times", "result": "reference group<GBE group<astaxanthin group"},
      {"measurement": "overall body weight vs reference group", "setting": "[1]; FIG. 3", "result": "no significant differences"},
      {"measurement": "fat content of liver vs reference group", "setting": "[1]; p<0.05", "result": "significantly lower"},
      {"measurement": "fat content of muscle vs reference group", "setting": "[1]; p<0.05", "result": "significantly lower"},
      {"measurement": "SOD activity in the liver", "setting": "[2]", "result": "157.35 ± 10.24^a U/mg prot"},
      {"measurement": "CAT activity in the liver", "setting": "catalase (CAT)", "result": "22.56 ± 3.11^a U/mg prot"},
      {"measurement": "CAT/SOD ratio in the liver", "setting": "catalase (CAT)", "result": "0.13 ± 0.01^a"},
      {"measurement": "MDA level in the liver", "setting": "malondialdehyde (MDA)", "result": "118 ± 9.33", "unit": "nmol/mg prot"}
    ]}
  ]
}
